experiment: method code SF-TN, from DOI: 10.1021/jm00251a007, PMID: 4151492

Structure (SMILES) | logP
CC(C)NCC(O)COc1ccc(OCC(O)CNC(C)C)cc1 (stereo unspecified) | 0.67
CC(C)NCC(O)COc1ccc2ccccc2c1OCC(O)CNC(C)C (stereo unspecified) | 1.07
CC(C)NCC(O)COc1cccc(OCC(O)CNC(C)C)c1 (stereo unspecified) | 0.73
CC(C)NCC(O)COc1ccccc1-c1ccccc1OCC(O)CNC(C)C (stereo unspecified) | 0.97
CC(C)NCC(O)COc1cccc2cccc(OCC(O)CNC(C)C)c12 (stereo unspecified) | 1.37
CC(C)NCC(O)COc1ccc2c(OCC(O)CNC(C)C)cccc2c1 (stereo unspecified) | 0.87

Continued, values first:

logP | Structure (SMILES)
1.76 | CC(C)NCC(O)COc1ccccc1 (stereo unspecified)
0.99 | CC(C)NCC(O)COc1cc(OCC(O)CNC(C)C)c2ccccc2c1 (stereo unspecified)
0.63 | CC(C)NCC(O)COc1ccccc1OCC(O)CNC(C)C (stereo unspecified)
0.98 | CC(C)NCC(O)COc1cccc2c(OCC(O)CNC(C)C)cccc12 (stereo unspecified)
0.93 | CC(C)NCC(O)COc1ccc(OCC(O)CNC(C)C)c2ccccc12 (stereo unspecified)
